Laboratory results as given in article PMC10223284, “Category-Based Toxicokinetic Evaluations of Data-Poor Per- and Polyfluoroalkyl Substances (PFAS) using Gas Chromatography Coupled with Mass Spectrometry” (Toxics, 2023).
Several values for one entry are separate records, joined by “and”; a condition that tells them apart may be missing. Equal entries are not always repeated. Where two headings read alike, the source gives them in different places.

Tests used:
[1] = Hepatic metabolic stability (hepatocyte clearance) assay, substrate depletion; type: in vitro ADME, human; settings: both sexes, human, hepatocytes
Source text: (§1) William’s Medium E (Gibco A1217601), dexamethasone, and cell maintenance cocktail B (Gibco CM4000) were obtained from Thermo Fisher Scientific (Waltham, MA, USA). Hepatosure OptiThaw media (P/N K8000; Lot No. 18–1–0322) was obtained from Sekisui Xenotech (Kansas City, KS, USA). Trypan blue solution (P/N 1450021) was obtained from Bio-Rad (Hercules, CA, USA). Pooled human cryopreserved primary hepatocyte suspensions were obtained from BioIVT (Westbury, NY, USA) and produced using nontransplantable tissue. The human 50-donor pool (mixed gender; Cat X0080005; Lot MYC), selected from BioIVT’s commercially available, prepooled lots, was selected following review of vendor-generated metabolic characterization information. Pooled, mixed-sex human plasma from de-identified donors was obtained from a commercial vendor that operates a U.S. Food and Drug Administration-licensed and inspected donor center (BioIVT bioivt.com (accessed 12 May 2023). Donors comprised five males and five females and ranged from 20 to 50 years of age. Plasma collected using anticoagulant K2EDTA was sterile-filtered ([…]) and stored at <−70 °C until use.
(§2) The hepatic metabolic stability assay measures the loss of a parent compound over time in a substrate-depletion approach. Briefly, hepatocyte suspensions, after a viability assessment, were diluted in complete William’s medium E (containing dexamethasone and cell maintenance cocktail B) prior to addition to 96-well polypropylene plates containing an equal volume of media spiked with the test compound (1 μM assay concentration; assay cell density = 50,000 cells/100 μL) and maintained at 37 °C with shaking. At each time point, relevant plates were crashed with an equal volume of ice-cold acetonitrile, centrifuged, and supernatant transferred to a new plate prior to storage at <−70 °C until quantitative analysis. Controls, run in parallel, included cell-free (i.e., media only) and metabolically inactivated hepatocytes to evaluate abiotic chemical stability in the aqueous media matrix with and without cellular protein. In preliminary runs, these controls were run at T0 and T240 only. If significant instability was noted, the hepatocyte clearance assay was rerun, including cell-free samples at each time point and metabolically inactivated hepatocytes at selected time points.
(§3) To process samples for quantitative analysis, samples were thawed and mixed. An aliquot of sample was removed and diluted in acetonitrile (1 part sample plus 9 parts acetonitrile) containing the relevant ISs selected for the PFAS being analyzed (See Table S2). The target at instrument concentration of each IS was 10 pg/μL.
(§4) The curves were generated using concentration/response ratios from the target analyte and IS, with either linear or quadratic regression models. The model and weighting, if necessary, were chosen to most accurately reflect the response of each compound and was evaluated by recalculating the individual calibration points using the curve. An acceptable model reflected an accuracy of ±30% of the theoretical value.
(§5) Hepatic metabolic clearance data were plotted in semi-log format (ln concentration vs. time) with three replicates at each time point, as previously described. […] The equations described below are used to calculate the chemical half-life (T½) and intrinsic in vitro clearance (Clin vitro) with units of μL/(min × million hepatocytes). In Equation (3), 2000 is a scalar used to adjust the assay cell number up to be consistent with units of 1 million cells in the Clint equation.
(§6) Negative controls, including media only and metabolically inactivated hepatocyte controls, were included to monitor abiotic loss (i.e., background clearance) during the assay. Where significant compound loss occurred using the analysis described above, background clearance rates were calculated and used to background-adjust hepatic metabolic clearance rates. […]

[2] = system: pooled human cryopreserved primary hepatocyte suspensions; assay: as above; type: in vitro ADME
Source text: as §1, §2, §3, §4, §5, §6

[3] = Abiotic loss in negative controls of the hepatocyte clearance assay (cell-free media, metabolically inactivated hepatocytes); type: in vitro ADME
How it was run: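 Test compound at 1 μM incubated at 37 °C with shaking in complete William's medium E, either cell-free or with metabolically inactivated hepatocytes, then quenched with ice-cold acetonitrile for quantitative analysis.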

[4] = In vitro-in vivo extrapolation (IVIVE) to Css and administered equivalent dose (AED); parameters: species or system human
Protocol: Using the experimentally generated PPB (fraction unbound in plasma, fup) and hepatic Clint data, IVIVE was performed as previously described to calculate human steady-state plasma concentrations (Css). Briefly, experimental measures of fup are adjusted using blood:plasma partitioning information to estimate the fraction unbound in blood (fub). Experimental hepatocyte Clint data are scaled up to represent whole-liver clearance (L/h). […] Once estimated, these Css values are considered in conjunction with published in vitro bioactivity concentrations (i.e., lowest-observed effective concentrations, or LOECs) to calculate AEDs (Table 2). See Table S10 for all relevant IVIVE inputs, scalars, calculations, and outputs.

[5] = system: human primary cells; settings: cited from earlier work
[6] = in vitro; settings: both, human, plasma
[7] = system: human plasma; assay: Chemical stability in plasma over the UC assay time course (T5hr/T1hr)
Protocol: Three replicates were run per experiment, with 4NT included as a reference compound in each to evaluate assay performance. All PFAS and 4NT, prepared at a 3 mM working stock, were added to human plasma to achieve a final, thoroughly mixed assay concentration of 10 μM, incubated at 37 °C for 1 h with shaking. […] After UC, the aqueous fraction (AF; i.e., supernatant devoid of plasma proteins/lipoproteins/fatty acids) was collected and transferred to a new tube. The second aliquot maintained at 37 °C was collected (T5hr). At the relevant time points, each volume of sample was combined with 3 volumes of vigorously mixed ice-cold acetonitrile with the labeled IS and stored for 10 min at −20 °C prior to centrifugation at 12,000× g for 10 min at 4 °C. The supernatant was collected and stored at <−70 °C until quantitative analysis. […] Furthermore, chemical stability in plasma over the assay time course was assessed using the T1hr and T5hr samples.
Percent chemical remaining at the end of the UC assay (T5hr/T1hr) was used to remove unstable chemicals from further evaluation.

[8] = system: human plasma; assay: Ultracentrifugation (UC) plasma protein binding assay, fraction unbound in plasma (fup)
[9] = hepatocyte incubation, Rep 1-3, start conc 1000 nM
[10] = heat treated hepatocytes, Rep 1-3

NC(=O)C(F)(F)C(F)(F)C(F)(F)C(F)(F)C(N)=O [Octafluoroadipamide]
hepatocyte CLint at 1 μM ([1]; background-subtracted, read-out: Bkgd-Sub Clearance (µL/min/106 hepatocytes)): 2.95 µL/min/1e6 cells
hepatocyte CLint at 1 μM ([1]; pooled human hepatocyte suspensions, 1 μM, read-out: In Vitro Clint): 2.95 µL/min/1e6 cells
hepatocyte CLint at 1 μM ([1]; unadjusted hepatocyte intrinsic clearance, read-out: Unadj in vitro Clint): 5.29 µL/min/1e6 cells
hepatocyte CLint at 1 μM ([1]; hepatocyte time course, NS = slope not significant, read-out: Linear Regression Results, Best-Fit Values, Clearance): 5.29 µL/min/1e6 cells
half-life at 1 μM ([1]; hepatocyte time course, NS = slope not significant, read-out: Linear Regression Results, Best-Fit Values, Half Life): 4.37 h
Concentration (nM), Time 0 min [2, 9]: 263.339 nM and 217.701 nM and 209.817 nM
Concentration (nM), Time 15 min [2, 9]: 291.912 nM and 225.036 nM and 414.445 nM
Concentration (nM), Time 30 min [2, 9]: 391.931 nM and 314.083 nM and 336.529 nM
Concentration (nM), Time 60 min [2, 9]: 437.175 nM and 457.948 nM and 302.199 nM
Concentration (nM), Time 120 min [2, 9]: 293.394 nM and 338.799 nM and 278.045 nM
Linear Regression Results, Best-Fit Values, Slope ([2]; hepatocyte time course): -0.002646
half-life at 1 μM ([3]; both sexes, human, heat treated hepatocytes control, 0 vs 240 min, read-out: HT BkgdCl, Half Life): 7.63 h
half-life at 1 μM ([3]; buffer, no cells control, 0 vs 240 min, read-out: No Cells BkgdCl, Half Life): 9.88 h
Hep_Stab_Fail ([3]; flag for stability failure in hepatocyte clearance assay controls (1 or Fst = fail, 0 = pass)): 0
HT BkgdCl, Slope ([3]; heat treated hepatocytes control, 0 vs 240 min): -0.001514
Negative Controls, Heat Treated (HT), concentration at 0 min [3, 10]: 209.171 nM and 207.599 nM and 206.567 nM
Negative Controls, Heat Treated (HT), concentration at 240 min [3, 10]: 153.885 nM and 136.838 nM and 143.186 nM
No Cells BkgdCl, Slope ([3]; no cells control, 0 vs 240 min): -0.00117
Negative Controls, No cells (NC), concentration at 0 min ([3]; no cells, Rep 1-3): 214.709 nM and 240.687 nM and 228.618 nM
Negative Controls, No cells (NC), concentration at 240 min ([3]; no cells, Rep 1-3): 175.164 nM and 151.709 nM and 191.604 nM
Css ([4]; Assuming 1 mg/kg/day dose rate, BW 70 kg): 0.10 mg/L and 0.34 uM
Clhep ([4]; IVIVE, hepatocyte Clint scaled to whole-liver clearance): 23.099 L/h
AED ([4]; administered equivalent dose from LOEC and Css): 5.8401 mg/kg/day
Fub ([4]; fub=fup/(B:P), Fub set to 1 if needed): 1
Css ([4]; human steady-state plasma concentration, assuming 1 mg/kg/day dosage): 0.34 µM
CLint ([4]; scaled with HPGL 110 mill cells/g, Vl 1596 g): 517902 µL/min
LOEC ([5]; BioSeek lowest-observed effect concentration used for AED): 2.00 µM
LOEC ([5]; minimum lowest-observed effect concentration, BioSeek platform): 2 µM
fraction unbound ([6]; Fraction Unbound (fu), Run-specific Avg, run-specific average): 0.67
fraction unbound ([6]; Fraction Unbound (fu), replicate A, individual replicate A of the UC run dated in c8): 0.704
fraction unbound ([6]; Fraction Unbound (fu), replicate B, individual replicate B of the UC run dated in c8): 0.633
fraction unbound ([6]; Fraction Unbound (fu), replicate C, individual replicate C of the UC run dated in c8): 0.732
fraction unbound ([6]; Mean Fu (fraction unbound), mean over all UC runs and replicates, human plasma): 0.82
fraction unbound ([6]; Mean fu, fraction unbound in human plasma, ultracentrifugation, some values based on eLOQ): 0.82
PPB_Stab_Fail ([7]; flag for stability failure in the plasma protein binding assay (1 = fail, 0 = pass)): 0
Mean Stability (T5hr/T1hr) ([7]; mean over all UC runs and replicates, human plasma): 0.977
Fstable.Med ([7]; median fraction stable in plasma, UC assay Level4): 0.546
Stability (T5hr/ T1hr), Run-specific Avg ([7]; run-specific average): 0.982
fup ([8]; human plasma, 10 μM, ultracentrifugation, 37 °C): 0.8201
Fup.Med ([8]; median fraction unbound in plasma, UC assay Level4): 0.864
Fup.point ([8]; point estimate of fraction unbound in plasma, UC assay Level4): 0.834
